Experiments:
Type in all cases: cell-based
[1] = test system: Wnt activity (Sp5-Luc reporter, TCF/LEF binding sites) in SW480 colon carcinoma cells; test: Screening assay for Wnt activity: Sp5-Luc reporter gene assay in stably transduced SW480 colon carcinoma cells; settings: Homo sapiens, overnight incubation, 10-point curve from 10 μM
Outline: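 SW480 cells stably transduced with a luciferase reporter driven by an Sp5 promoter of eight TCF/LEF sites were plated at 4,000 cells/well in 1% FBS medium. They were exposed overnight at 37° C to a 10-point 1:3 dilution series from 10 μM (0.1% DMSO). Luminescence was normalized to DMSO for four-parameter EC50, or percent inhibition at 10 μM.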

[2] = test system: Primary human fibroblasts derived from IPF patients (LL29 cells) treated with TGF-β1; test: Inhibition of the fibrotic process: αSMA staining in TGF-β1-treated primary human fibroblasts from IPF patients (LL29 cells); settings: Fibroblast, 96 h, % αSMA-positive LL29 cells, TGF-β1 20 ng/mL, 4 days
Outline: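 LL29 IPF-patient fibroblasts in 1% FBS stimulated with TGF-β1 (20 ng/mL) and compound (10 μM–1.87 nM, 0.1% DMSO) for 4 days at 37 °C. SYTOX-positive cells excluded; % αSMA-positive cells imaged, normalized to TGF-β1/DMSO wells; EC50 by nonlinear regression, else % inhibition at 10 μM.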

IL-6 = test: Inhibition of IL-6 in LPS-stimulated THP-1 human monocyte cells (HTRF); settings: IL-6 inhibition, LPS-stimulated THP-1 cells, HTRF
Outline: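 THP-1 cells serum-reduced (1% FBS, 24 h), then 5000 cells/well preincubated 2 h with compound (10-point 1:3 series from 10 μM, 0.1% DMSO) before 500 ng/mL LPS for 22 h at 37 °C. Secreted IL-6 quantified by HTRF 665/620 ratio; DMSO-normalised duplicates fitted to four-parameter EC50; above 10 μM, % inhibition at 10 μM given.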

SW480 colon cancer cells = test: Cell viability assay (CellTiter-Blue) in SW480 colon cancer cells; settings: Homo sapiens, 96 h, four days, CellTiter-Blue
Outline: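 SW480 cells (~2×10^3 per well) were exposed to compound for four days at 37 °C/5% CO2, using 8-point 1:3 dilutions from 10 μM to 0.0045 μM in duplicate. Viability was read by resazurin reduction (CellTiter-Blue, ~3 h, Ex 560/Em 590 nm). EC50 came from non-linear regression; above 10 μM, percent inhibition at 10 μM is given.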

| Compound | EC50 [1] | EC50 [2] | EC50 (IL-6) | EC50 (SW480 colon cancer cells) |
| --- | --- | --- | --- | --- |
| CN(C)CCNc1cc(F)cc(-c2cccc3[nH]c(-c4n[nH]c5ccc(-c6cncc(NC(=O)Cc7ccccc7)c6)cc45)cc23)c1 [Compound 458, N-(5-(3-(4-(3-((2-(Dimethylamino)ethyl)amino)-5-fluorophenyl)-1H-indol-2-yl)-1H-indazol-5-yl)pyridin-3-yl)-2-phenylacetamide] | 422 nM | 1010 nM | 354 nM | 767 nM |
| CN(C)CCNc1cc(F)cc(-c2cccc3[nH]c(-c4n[nH]c5ccc(-c6cncc(NC(=O)c7ccccc7)c6)cc45)cc23)c1 [Compound 459, N-(5-(3-(4-(3-((2-(Dimethylamino)ethyl)amino)-5-fluorophenyl)-1H-indol-2-yl)-1H-indazol-5-yl)pyridin-3-yl)benzamide] | 67 nM | 77 nM | 109 nM | 212 nM |
| CCCC(=O)Nc1cncc(-c2ccc3[nH]nc(-c4cc5c(-c6cc(F)cc(NCCN(C)C)c6)cccc5[nH]4)c3c2)c1 [Compound 465, N-(5-(3-(4-(3-((2-(Dimethylamino)ethyl)amino)-5-fluorophenyl)-1H-indol-2-yl)-1H-indazol-5-yl)pyridin-3-yl)butyramide] | 138 nM | 224 nM | 876 nM | 310 nM |
| CN(C)CCNc1cc(F)cc(-c2cccc3[nH]c(-c4n[nH]c5ccc(-c6cncc(NC(=O)C7CC7)c6)cc45)cc23)c1 [Compound 468, N-(5-(3-(4-(3-((2-(Dimethylamino)ethyl)amino)-5-fluorophenyl)-1H-indol-2-yl)-1H-indazol-5-yl)pyridin-3-yl)cyclopropanecarboxamide] | 21 nM | 174 nM | 9 nM | 75 nM |
| CN(C)CCNc1cc(F)cc(-c2cccc3[nH]c(-c4n[nH]c5ccc(-c6cncc(NC(=O)C7CCC7)c6)cc45)cc23)c1 [Compound 469, N-(5-(3-(4-(3-((2-(Dimethylamino)ethyl)amino)-5-fluorophenyl)-1H-indol-2-yl)-1H-indazol-5-yl)pyridin-3-yl)cyclobutanecarboxamide] | 195 nM | 189 nM | 27 nM | 287 nM |
| CN(C)CCNc1cc(F)cc(-c2cccc3[nH]c(-c4n[nH]c5ccc(-c6cncc(NC(=O)C7CCCC7)c6)cc45)cc23)c1 [Compound 470, N-(5-(3-(4-(3-((2-(Dimethylamino)ethyl)amino)-5-fluorophenyl)-1H-indol-2-yl)-1H-indazol-5-yl)pyridin-3-yl)cyclopentanecarboxamide] | 40 nM | > 10000 nM | 54 nM | 166 nM |
| CN(C)CCNc1cc(F)cc(-c2cccc3[nH]c(-c4n[nH]c5ccc(-c6cncc(NC(=O)C7CCCCC7)c6)cc45)cc23)c1 [Compound 471, N-(5-(3-(4-(3-((2-(Dimethylamino)ethyl)amino)-5-fluorophenyl)-1H-indol-2-yl)-1H-indazol-5-yl)pyridin-3-yl)cyclohexanecarboxamide] | 689 nM | 1420 nM | 731 nM | 1380 nM |
| CCC(=O)Nc1cncc(-c2ccc3[nH]nc(-c4cc5c(-c6cc(F)cc(CNS(C)(=O)=O)c6)cccc5[nH]4)c3c2)c1 [Compound 477, N-(5-(3-(4-(3-Fluoro-5-(methylsulfonamidomethyl)phenyl)-1H-indol-2-yl)-1H-indazol-5-yl)pyridin-3-yl)propionamide] | 135 nM | 224 nM | 595 nM | 817 nM |
| CS(=O)(=O)NCc1cc(F)cc(-c2cccc3[nH]c(-c4n[nH]c5ccc(-c6cncc(N)c6)cc45)cc23)c1 [Compound 479, N-(3-(2-(5-(5-Aminopyridin-3-yl)-1H-indazol-3-yl)-1H-indol-4-yl)-5-fluorobenzyl)methanesulfonamide] | 80 nM | 134 nM | 169 nM | 677 nM |
| Cc1ccncc1-c1ccc2[nH]nc(-c3cc4c(-c5cc(F)cc(CNS(C)(=O)=O)c5)cccc4[nH]3)c2c1 [Compound 481, N-(3-Fluoro-5-(2-(5-(4-methylpyridin-3-yl)-1H-indazol-3-yl)-1H-indol-4-yl)benzyl)methanesulfonamide] | 105 nM | 156 nM | 122 nM | 891 nM |
| CS(=O)(=O)NCc1cc(F)cc(-c2cccc3[nH]c(-c4n[nH]c5ccc(-c6cncc(NC(=O)c7ccccc7)c6)cc45)cc23)c1 [Compound 487, N-(5-(3-(4-(3-Fluoro-5-(methylsulfonamidomethyl)phenyl)-1H-indol-2-yl)-1H-indazol-5-yl)pyridin-3-yl)benzamide] | 650 nM | 313 nM | 2060 nM | 3180 nM |
| CN(C)Cc1cncc(-c2ccc3[nH]nc(-c4cc5c(-c6cc(F)cc(CNS(C)(=O)=O)c6)cccc5[nH]4)c3c2)c1 [Compound 489, N-(3-(2-(5-(5-((Dimethylamino)methyl)pyridin-3-yl)-1H-indazol-3-yl)-1H-indol-4-yl)-5-fluorobenzyl)methanesulfonamide] | 120 nM | 406 nM | 1060 nM | 568 nM |
| CS(=O)(=O)NCc1cc(F)cc(-c2cccc3[nH]c(-c4n[nH]c5ccc(-c6cncc(CN7CCCCC7)c6)cc45)cc23)c1 [Compound 491, N-(3-Fluoro-5-(2-(5-(5-(piperidin-1-ylmethyl)pyridin-3-yl)-1H-indazol-3-yl)-1H-indol-4-yl)benzyl)methanesulfonamide] | 540 nM | 833 nM | 5450 nM | 1490 nM |
| CS(=O)(=O)NCc1cc(F)cc(-c2cccc3[nH]c(-c4n[nH]c5ccc(-c6cncc(NC(=O)C7CC7)c6)cc45)cc23)c1 [Compound 496, N-(5-(3-(4-(3-Fluoro-5-(methylsulfonamidomethyl)phenyl)-1H-indol-2-yl)-1H-indazol-5-yl)pyridin-3-yl)cyclopropanecarboxamide] | 130 nM | 399 nM | 991 nM | 1030 nM |
| CS(=O)(=O)NCc1cc(F)cc(-c2cccc3[nH]c(-c4n[nH]c5ccc(-c6cncc(CN7CCC(F)(F)C7)c6)cc45)cc23)c1 [Compound 502, N-(3-(2-(5-(5-((3,3-Difluoropyrrolidin-1-yl)methyl)pyridin-3-yl)-1H-indazol-3-yl)-1H-indol-4-yl)-5-fluorobenzyl)methane sulfonamide] | 475 nM | 811 nM | 3140 nM | 3270 nM |
| CCNCc1cncc(-c2ccc3[nH]nc(-c4cc5ncccc5[nH]4)c3c2)c1 [Compound 510, N-((5-(3-(1H-pyrrolo[3,2-b]pyridin-2-yl)-1H-indazol-5-yl)pyridin-3-yl)methyl)ethanamine] | 464 nM | 1590 nM | 98 nM | 345 nM |
| Fc1ccccc1-c1cccc2[nH]c(-c3n[nH]c4ccc(-c5cncc(OC6CCNCC6)c5)cc34)cc12 [Compound 572, 3-(4-(2-Fluorophenyl)-1H-indol-2-yl)-5-(5-(piperidin-4-yloxy)pyridin-3-yl)-1H-indazole] | 1020 nM | 2230 nM | 3500 nM | 1400 nM |
| c1cncc(-c2cccc3[nH]c(-c4n[nH]c5ccc(-c6cn[nH]c6)cc45)cc23)c1 [Compound 583, 5-(1H-Pyrazol-4-yl)-3-(4-(pyridin-3-yl)-1H-indol-2-yl)-1H-indazole] | 49 nM | 501 nM | 78 nM | 128 nM |

— US10604512B2, “3-(1H-indol-2-yl)-1H-indazoles and therapeutic uses thereof” (Samumed, LLC, priority 2015, dated 2020)
